According to PubChem BioAssay AID2060502 (Molecular Pharmacology Branch, DTP, NCI, 2025):
Where “and” joins values, the source holds several entries; their conditions need not be identical. Identical values can stand only once.

Tested on: 885724-159-R-J1-PDC complex spheroid viability
Test: Anticancer human tumor 885724-159-R-J1-PDC patient-derived pancreatic adenocarcinoma cell line growth inhibition [GQUAD]
Settings: for viability, T/C: stronger effect = lower value; active means viability on the fitted dose curve at most 10% of control; inactive means the rest
Source text: DNA G-quadruplex Stabilizer Agents in Combinations in Complex Spheroids
A high-throughput screen of multi-cell type tumor spheroids was designed to identify active combinations of DNA G-quadruplex stabilizer agents and targeted small molecules. Complex spheroids include a stromal component modeled by human endothelial cells (HUVEC) and fibroblasts modeled by human mesenchymal stem cells (MSCs). The concentration ranges selected for each drug and investigational agent were based upon clinically achievable concentrations if the clinical Cmax of the agent was known.
Compounds. The drugs and investigational agents: pidnarulex (CX-5461; NSC782164), APTO-253 (NSC789042), BRACO-19 (NSC847499), peposertib (NSC802822), ceralasertib (NSC780249), elimusertib (NSC800525), camonsertib (NSC841442), AZD-1390 (NSC803789), olaparib (NSC753686), talazoparib (NSC767125), ART-558 (NSC835418), sotorasib (NSC818433), MRTX-1133 (NSC836407), SN-38 (NSC673596), topotecan (NSC609699), etoposide (NSC141540), doxorubicin (NSC123127), gemcitabine (NSC613327), 5-fluorouracil (NSC19893), paclitaxel (NSC125973), vemurafenib (NSC761431), panobinostat (NSC761190), R-306465 (JNJ-16241199; NSC773264), adavosertib (NSC754352), TP-3654 (NSC805149), carboplatin (NSC241240), KSQ-4279 (NSC840948), and staurosporine (NSC755774) were obtained from the National Cancer Institute (NCI) Developmental Therapeutics Program Chemical Repository (34). The FDA-approved anticancer drug set is available from the NCI Developmental Therapeutics Program. […] The stock solutions were prepared in dimethyl sulfoxide (DMSO, Sigma-Aldrich, St. Louis, MO, cat. D2650) at 800-fold the tested concentration and stored at -70 degrees C prior to their use. All drugs and investigational agents were tested over a range starting from a high concentration at or near the clinical Cmax and decreasing in half-log increments. If the clinical Cmax for an agent had not been determined, the highest concentration tested was 10 microM.
2.3 Cell Culture. All cells were maintained in an incubator at 37 degrees C and 5% CO2 with 95% humidity. The PDC lines were cultured according to standard operating procedures established by the NCI PDMR. All PDCs were thawed and cultured in Matrigel-coated flasks prepared with a working solution of 1X Ham's F-12 nutrient mix, without supplementation (Invitrogen, cat. 11765054), 100 U/mL penicillin-streptomycin (Invitrogen, cat. 15140122), and 2.5% Matrigel (Corning Inc., cat. 354248) for the first three passages. The 857933-349-R-J2-PDC line was cultured in 6C/Colon 1B media, which includes advanced DMEM/F-12 (Thermo Fisher Scientific, cat. 12634028), 10 mM HEPES (Thermo Fisher Scientific, cat. 15630080), 1X GlutaMAX supplement (Thermo Fisher Scientific, cat. 35050061), 0.1 mg/mL primocin (InvivoGen, cat. ant-pm-2), 10% defined fetal bovine serum, heat inactivated (HyClone Laboratories Inc., cat. SH30070.03HI), 50% L-WRN conditioned media (ATCC, cat. CRL-3276), 1.25 mM N-Acetyl-L-cysteine (Sigma-Aldrich, cat. A9165), 10 mM nicotinamide (Sigma-Aldrich, cat. N0636), 1X B-27 supplement (Thermo Fisher Scientific, cat. 17504044), 1X N-2 supplement (Thermo Fisher Scientific, cat. 17502048), 10 microM Y-27632 dihydrochloride (Tocris Bioscience, cat. 1254), and 50 ng/mL human EGF recombinant protein (Thermo Fisher Scientific, cat. PHG0311). The 485176-168-R4-J1-PDC line was cultured in Panc media, which includes all 6C/Colon 1B media components plus 100 ng/mL human FGF-10 (Thermo Fisher Scientific, cat. 100-26), 500 nM SB-431542 (Selleckchem, cat. S1067), and gastrin (Tocris, cat. 3006).
[…]

[1] = curve of first compound, second compound 0.0316 µM
[2] = curve of first compound, second compound 0.1 µM
[3] = curve of first compound, second compound 0.316 µM
[4] = curve of first compound, second compound 1 µM
[5] = curve of first compound, second compound 3.16 µM
[6] = curve of first compound, second compound 10 µM
[7] = second compound 0.0316 µM, first compound 0.0316 µM
[8] = second compound 0.0316 µM, first compound 0.1 µM
[9] = second compound 0.0316 µM, first compound 0.316 µM
[10] = second compound 0.0316 µM, first compound 1 µM
[11] = second compound 0.0316 µM, first compound 3.16 µM
[12] = second compound 0.0316 µM, first compound 10 µM
[13] = second compound 0.1 µM, first compound 0.0316 µM
[14] = second compound 0.1 µM, first compound 0.1 µM
[15] = second compound 0.1 µM, first compound 0.316 µM
[16] = second compound 0.1 µM, first compound 1 µM
[17] = second compound 0.1 µM, first compound 3.16 µM
[18] = second compound 0.1 µM, first compound 10 µM
[19] = second compound 0.316 µM, first compound 0.0316 µM
[20] = second compound 0.316 µM, first compound 0.1 µM
[21] = second compound 0.316 µM, first compound 0.316 µM
[22] = second compound 0.316 µM, first compound 1 µM
[23] = second compound 0.316 µM, first compound 3.16 µM
[24] = second compound 0.316 µM, first compound 10 µM
[25] = second compound 1 µM, first compound 0.0316 µM
[26] = second compound 1 µM, first compound 0.1 µM
[27] = second compound 1 µM, first compound 0.316 µM
[28] = second compound 1 µM, first compound 1 µM
[29] = second compound 1 µM, first compound 3.16 µM
[30] = second compound 1 µM, first compound 10 µM
[31] = second compound 3.16 µM, first compound 0.0316 µM
[32] = second compound 3.16 µM, first compound 0.1 µM
[33] = second compound 3.16 µM, first compound 0.316 µM
[34] = second compound 3.16 µM, first compound 1 µM
[35] = second compound 3.16 µM, first compound 3.16 µM
[36] = second compound 3.16 µM, first compound 10 µM
[37] = second compound 10 µM, first compound 0.0316 µM
[38] = second compound 10 µM, first compound 0.1 µM
[39] = second compound 10 µM, first compound 0.316 µM
[40] = second compound 10 µM, first compound 1 µM
[41] = second compound 10 µM, first compound 3.16 µM
[42] = second compound 10 µM, first compound 10 µM
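Further: spheroids exposed to agents for seven days before readout.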
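Wherever viability, T/C is given: percent of vehicle control viability where 100% = DMSO wells.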

C=CCn1c(=O)c2cnc(Nc3ccc(N4CCN(C)CC4)cc3)nc2n1-c1cccc(C(C)(C)O)n1
inactive: viability, T/C (compound 0.0316 µM) 90.4% and 95.2% and 93.1% | viability, T/C (compound 0.1 µM) 81.6% and 90.3% and 88.1% | viability, T/C (compound 0.316 µM) 68.6% and 78.2% and 86% | viability, T/C (compound 1 µM) 75.6% and 70.3% and 89.2% | viability, T/C (compound 3.16 µM) 65.7% and 58% and 84% | viability, T/C (compound 10 µM) 74.5% and 66.7% and 91.9%
> 10000 nM: IC50 (curve of compound)

C=CCn1c(=O)c2cnc(Nc3ccc(N4CCN(C)CC4)cc3)nc2n1-c1cccc(C(C)(C)O)n1 + Cc1[nH]c2ccc(F)cc2c1-c1nc2c3cccnc3c3ncccc3c2[nH]1
558 nM: IC50 [4]
455 nM: IC50 [6]
inactive: viability, T/C [7] 88.7% | viability, T/C [8] 87.8% | viability, T/C [9] 71.1% | viability, T/C [10] 63.7% | viability, T/C [11] 68.8% | viability, T/C [12] 73.9% | viability, T/C [13] 90.3% | viability, T/C [14] 90% | viability, T/C [15] 84.3% | viability, T/C [16] 79.6% | viability, T/C [17] 63.5% | viability, T/C [18] 71.8% | viability, T/C [19] 83.1% | viability, T/C [20] 83.1% | viability, T/C [21] 68.7% | viability, T/C [22] 57.6% | viability, T/C [23] 74% | viability, T/C [24] 67.1% | viability, T/C [25] 70.9% | viability, T/C [26] 55.3% | viability, T/C [27] 52.1% | viability, T/C [28] 49.9% | viability, T/C [29] 50.9% | viability, T/C [30] 41.3% | viability, T/C [31] 12.9% | viability, T/C [37] 63.5% | viability, T/C [38] 58.5% | viability, T/C [39] 47.3% | viability, T/C [40] 47% | viability, T/C [41] 50% | viability, T/C [42] 38.1%
active: viability, T/C [32] 8.26% | viability, T/C [33] 11.1% | viability, T/C [34] 5.9% | viability, T/C [35] 9.96% | viability, T/C [36] 8.31%
< 31.6 nM: IC50 [5]
> 10000 nM: IC50 [1] | IC50 [2] | IC50 [3]

O=C(NO)c1cnc(N2CCN(S(=O)(=O)c3ccc4ccccc4c3)CC2)nc1 + Cc1cnc(CNC(=O)c2c(=O)c3ccc(N4CCCN(C)CC4)nc3n3c2sc2ccccc23)cn1
450 nM: IC50 [2]
inactive: viability, T/C [7] 77.4% | viability, T/C [8] 83.3% | viability, T/C [9] 65.4% | viability, T/C [10] 31.2% | viability, T/C [13] 117% | viability, T/C [14] 79.7% | viability, T/C [15] 56.6% | viability, T/C [16] 40% | viability, T/C [17] 10.4% | viability, T/C [19] 102% | viability, T/C [20] 78.9% | viability, T/C [21] 63.3% | viability, T/C [22] 26.1% | viability, T/C [23] 12.7% | viability, T/C [25] 80.5% | viability, T/C [26] 70.4% | viability, T/C [27] 60% | viability, T/C [28] 28.4% | viability, T/C [31] 80.6% | viability, T/C [32] 59.6% | viability, T/C [33] 39.8% | viability, T/C [34] 23.7% | viability, T/C [37] 60.2% | viability, T/C [38] 58.5% | viability, T/C [39] 42% | viability, T/C [40] 20.5%
active: viability, T/C [11] 13.7% | viability, T/C [12] 0.25% | viability, T/C [18] 0.28% | viability, T/C [24] 0.32% | viability, T/C [29] 9.39% | viability, T/C [30] 0.18% | viability, T/C [35] 0.23% | viability, T/C [36] 0.18% | viability, T/C [41] 0.26% | viability, T/C [42] 0.22%
549 nM: IC50 [1]
437 nM: IC50 [3]
182 nM: IC50 [5]
434 nM: IC50 [4]
183 nM: IC50 [6]
